We go through 15 compounds from patent US20160108049A1 (TAKEDA Gmbh, priority 2011, published 2016).

The target in one experiment is T1, PDE4B1 (Homo sapiens, UniProt Q07343).
T1 construct: made in house; host or cells: SF21 insect cells (baculovirus; virus made in SF9 cells, pCR-Bac vector)
Nature of the experiment: Inhibition of PDE4 activity (PDE4B1, SPA assay). The settings on record: recombinant PDE4B1, 0.5 μM cAMP; read-out: PDE4B1 Inhibitory values measured as -logIC50 (converted). The class given is biochemical. In outline: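 Baculovirus-expressed enzyme from SF21 cell 1000×g supernatant; substrate 0.5 μM [3H]cAMP in 20 mM Tris pH 7.4, 5 mM Mg2+, 0.1 mg/ml BSA, 10-20% conversion. 5 min preincubation at 37 °C, 15 min reaction, stopped by SPA beads with IBMX; IC50 by non-linear regression.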

Another experiment concerns the target T2, human PDE5 (Homo sapiens, UniProt O76074).
T2 construct: from tissue; host or cells: human platelets from fresh donor blood (platelet lysate)
Nature of the experiment: Inhibition of PDE5 activity (platelet lysate, SPA assay). The following applies: 0.5 μM cGMP, read-out: PDE5 Inhibitory values measured as -logIC50 (converted). The class given is biochemical. In a few lines: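 Human platelet lysate (10,000 g supernatant) served as PDE5 source, with 1 μM motapizone and 10 nM PDE2 inhibitor added, in Tris pH 7.4, 5 mM Mg2+, BSA. Substrate 0.5 μM [3H]cGMP, 10–20% conversion; 5 min preincubation then 15 min at 37 °C, stopped by SPA beads with IBMX. IC50 by non-linear regression.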

Where only a bound is given, the exact number is not on record here.

T1 sequence (Q07343 whole entry): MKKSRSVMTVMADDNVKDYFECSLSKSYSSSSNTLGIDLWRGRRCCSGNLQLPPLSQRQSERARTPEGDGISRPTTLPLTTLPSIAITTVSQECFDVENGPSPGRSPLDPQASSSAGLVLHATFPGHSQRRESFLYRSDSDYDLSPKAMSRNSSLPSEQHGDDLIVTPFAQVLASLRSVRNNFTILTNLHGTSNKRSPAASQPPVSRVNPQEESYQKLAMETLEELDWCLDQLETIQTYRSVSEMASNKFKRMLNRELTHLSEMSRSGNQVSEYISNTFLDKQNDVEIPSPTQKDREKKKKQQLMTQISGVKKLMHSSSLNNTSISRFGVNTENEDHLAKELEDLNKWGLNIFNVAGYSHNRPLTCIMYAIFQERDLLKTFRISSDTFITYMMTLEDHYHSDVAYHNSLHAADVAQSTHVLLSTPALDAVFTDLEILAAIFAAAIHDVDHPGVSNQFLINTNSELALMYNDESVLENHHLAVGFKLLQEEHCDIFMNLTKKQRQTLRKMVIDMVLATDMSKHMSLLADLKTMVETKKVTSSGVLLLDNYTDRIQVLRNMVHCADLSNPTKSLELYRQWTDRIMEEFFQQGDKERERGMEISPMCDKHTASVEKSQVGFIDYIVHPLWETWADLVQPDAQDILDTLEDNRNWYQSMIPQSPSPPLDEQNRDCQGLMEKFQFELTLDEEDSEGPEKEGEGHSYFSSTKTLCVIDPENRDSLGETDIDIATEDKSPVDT

As to `COc1ccc(C2=NN(C3CCN(C(=O)[C@@H](Cc4ccc(F)cc4)NC(=O)c4c[nH]c5c(-c6c(OCC7CC7)ccc7c6OCO7)ncnc45)CC3)C(=O)C(C)(C)C2)cc1OC` [Example 108, 4-[5-(cyclopropylmethoxy)-1,3-benzodioxol-4-yl]-N-[(2R)-1-{4-[3-(3,4-dimethoxyphenyl)-5,5-dimethyl-6-oxo-5,6-dihydropyridazin-1(4H)-yl]piperidin-1-yl}-3-(4-fluorophenyl)-1-oxopropan-2-yl]-5H-pyrrolo[3,2-d]pyrimidine-7-carboxamide], the IC50 on PDE4B1 and on human PDE5 was less than 1 nM each time.
In the case of `COc1ccc(C2=NN(C3CCN(C(=O)[C@@H](Cc4ccncc4)NC(=O)c4c[nH]c5c(-c6c(OCC7CC7)ccc7c6OCO7)ncnc45)CC3)C(=O)[C@@H]3CCCC[C@H]23)cc1OC` [Example 109, 4-[5-(cyclopropylmethoxy)-1,3-benzodioxol-4-yl]-N-[(2R)-1-{4-[(4aS,8aR)-4-(3,4-dimethoxyphenyl)-1-oxo-4a,5,6,7,8,8a-hexahydrophthalazin-2(1H)-yl]piperidin-1-yl}-1-oxo-3-(pyridin-4-yl)propan-2-yl]-5H-pyrrolo[3,2-d]pyrimidine-7-carboxamide], the IC50 on PDE4B1 and on human PDE5 was less than 1 nM throughout.
Turning to `COc1ccc(C2=NN(C3CCN(C(=O)[C@H](Cc4ccccc4)NC(=O)c4c[nH]c5c(-c6c(OCC7CC7)ccc7c6OCO7)ncnc45)CC3)C(=O)C(C)(C)C2)cc1OC` [Example 110, 4-[5-(cyclopropylmethoxy)-1,3-benzodioxol-4-yl]-N-[(2S)-1-{4-[3-(3,4-dimethoxyphenyl)-5,5-dimethyl-6-oxo-5,6-dihydropyridazin-1(4H)-yl]piperidin-1-yl}-1-oxo-3-phenylpropan-2-yl]-5H-pyrrolo[3,2-d]pyrimidine-7-carboxamide], the IC50 at PDE4B1 and on human PDE5 was 1 to 10 nM throughout.
Turning to `COc1ccc(C2=NN(C3CCN(C(=O)[C@@H](C)NC(=O)c4c[nH]c5c(-c6c(OCC7CC7)ccc7c6OCO7)ncnc45)CC3)C(=O)C(C)(C)C2)cc1OC` [Example 111, 4-[5-(cyclopropylmethoxy)-1,3-benzodioxol-4-yl]-N-[(2R)-1-{4-[3-(3,4-dimethoxyphenyl)-5,5-dimethyl-6-oxo-5,6-dihydropyridazin-1(4H)-yl]piperidin-1-yl}-1-oxopropan-2-yl]-5H-pyrrolo[3,2-d]pyrimidine-7-carboxamide], the IC50 on PDE4B1 and at human PDE5 was 1 to 10 nM each time.
Turning to `COc1ccc(C2=NN(C3CCN(C(=O)[C@@H](Cc4ccc(N5CCC5=O)cc4)NC(=O)c4c[nH]c5c(-c6c(OCC7CC7)ccc7c6OCO7)ncnc45)CC3)C(=O)[C@@H]3CCCC[C@H]23)cc1OC` [Example 112, 4-[5-(cyclopropylmethoxy)-1,3-benzodioxol-4-yl]-N-{(2R)-1-{4-[(4aS,8aR)-4-(3,4-dimethoxyphenyl)-1-oxo-4a,5,6,7,8,8a-hexahydrophthalazin-2(1H)-yl]piperidin-1-yl}-1-oxo-3-[4-(2-oxoazetidin-1-yl)phenyl]propan-2-yl}-5H-pyrrolo[3,2-d]pyrimidine-7-carboxamide], the IC50 on PDE4B1 and at human PDE5 was less than 1 nM each time.
As to `COc1ccc(C2=NN(C3CCN(C(=O)[C@@H](Cc4ccc(N5CCCC5=O)cc4)NC(=O)c4c[nH]c5c(-c6c(OCC7CC7)ccc7c6OCO7)ncnc45)CC3)C(=O)[C@@H]3CCCC[C@H]23)cc1OC` [Example 113, 4-[5-(cyclopropylmethoxy)-1,3-benzodioxol-4-yl]-N-{(2R)-1-{4-[(4aS,8aR)-4-(3,4-dimethoxyphenyl)-1-oxo-4a,5,6,7,8,8a-hexahydrophthalazin-2(1H)-yl]piperidin-1-yl}-1-oxo-3-[4-(2-oxopyrrolidin-1-yl)phenyl]propan-2-yl}-5H-pyrrolo[3,2-d]pyrimidine-7-carboxamide], the IC50 on PDE4B1 and at human PDE5 was less than 1 nM throughout.
Consider `COc1ccc(C2=NN(C3CCN(C(=O)[C@H](Cc4cccnc4)NC(=O)c4c[nH]c5c(-c6c(OCC7CC7)ccc7c6OCO7)ncnc45)CC3)C(=O)C(C)(C)C2)c2c1OC(C)(C)C2` [Example 114, 4-[5-(cyclopropylmethoxy)-1,3-benzodioxol-4-yl]-N-[(2S)-1-{4-[3-(7-methoxy-2,2-dimethyl-2,3-dihydro-1-benzofuran-4-yl)-5,5-dimethyl-6-oxo-5,6-dihydropyridazin-1(4H)-yl]piperidin-1-yl}-1-oxo-3-(pyridin-3-yl)propan-2-yl]-5H-pyrrolo[3,2-d]pyrimidine-7-carboxamide], for which the results for the IC50 at PDE4B1 and at human PDE5 were 1 to 10 nM and less than 1 nM, respectively.
As for `COc1ccc(C2=NN(C3CCN(C(=O)[C@@H](Cc4ccccc4)NC(=O)c4c[nH]c5c(-c6c(OCC7CC7)ccc7c6OCO7)ncnc45)CC3)C(=O)C(C)(C)C2)c2c1OC(C)(C)C2` [Example 115], the IC50 on PDE4B1 is less than 1 nM; on human PDE5 it was 1 to 10 nM.
As for `CCC1(CC)CC(c2ccc(OC)c(OC)c2)=NN(C2CCN(C(=O)[C@@H](Cc3ccccc3)NC(=O)c3c[nH]c4c(-c5c(OCC6CC6)ccc6c5OCO6)ncnc34)CC2)C1=O` [Example 116, 4-[5-(cyclopropylmethoxy)-1,3-benzodioxol-4-yl]-N-[(2R)-1-{4-[3-(3,4-dimethoxyphenyl)-5,5-diethyl-6-oxo-5,6-dihydropyridazin-1(4H)-yl]piperidin-1-yl}-1-oxo-3-phenylpropan-2-yl]-5H-pyrrolo[3,2-d]pyrimidine-7-carboxamide], the IC50 at PDE4B1 and on human PDE5 was 1 to 10 nM throughout.
With `COc1ccc(C2=NN(C3CCN(C(=O)CNC(=O)c4c[nH]c5c(-c6c(OCC7CC7)ccc7c6OCO7)ncnc45)CC3)C(=O)C(C)(C)C2)c2c1OC(C)(C)C2` [Example 117, 4-[5-(cyclopropylmethoxy)-1,3-benzodioxol-4-yl]-N-(2-{4-[3-(7-methoxy-2,2-dimethyl-2,3-dihydro-1-benzofuran-4-yl)-5,5-dimethyl-6-oxo-5,6-dihydropyridazin-1(4H)-yl]piperidin-1-yl}-2-oxoethyl)-5H-pyrrolo[3,2-d]pyrimidine-7-carboxamide], the IC50 on PDE4B1 and on human PDE5 was 1 to 10 nM throughout.
Regarding `COc1ccc(C2=NN(C3CCN(C(=O)[C@@H](CCC(=O)N(C)C)NC(=O)c4c(C)[nH]c5c(-c6c(OCC7CC7)ccc7c6OCO7)ncnc45)CC3)C(=O)C(C)(C)C2)cc1OC` [Example 118, 4-[5-(cyclopropylmethoxy)-1,3-benzodioxol-4-yl]-N-[(2R)-1-{4-[3-(3,4-dimethoxyphenyl)-5,5-dimethyl-6-oxo-5,6-dihydropyridazin-1(4H)-yl]piperidin-1-yl}-5-(dimethylamino)-1,5-dioxopentan-2-yl]-6-methyl-5H-pyrrolo[3,2-d]pyrimidine-7-carboxamide], the IC50 on PDE4B1 was 1 to 10 nM; at human PDE5 it was less than 1 nM.
`COc1ccc(C2=NN(C3CCN(C(=O)[C@H](NC(=O)c4c[nH]c5c(-c6c(OCC7CC7)ccc7c6OCO7)ncnc45)C(C)C)CC3)C(=O)[C@@H]3CCCC[C@H]23)cc1OC` [Example 119, 4-[5-(cyclopropylmethoxy)-1,3-benzodioxol-4-yl]-N-[(2R)-1-{4-[(4aS,8aR)-4-(3,4-dimethoxyphenyl)-1-oxo-4a,5,6,7,8,8a-hexahydrophthalazin-2(1H)-yl]piperidin-1-yl}-3-methyl-1-oxobutan-2-yl]-5H-pyrrolo[3,2-d]pyrimidine-7-carboxamide]: the IC50 at PDE4B1 and at human PDE5 was less than 1 nM in each case.
`COc1ccc(C2=NN(C3CCN(C(=O)[C@H](NC(=O)c4c(C)[nH]c5c(-c6c(OCC7CC7)ccc7c6OCO7)ncnc45)C(C)C)CC3)C(=O)[C@@H]3CCCC[C@H]23)cc1OC` [Example 120, 4-[5-(cyclopropylmethoxy)-1,3-benzodioxol-4-yl]-N-[(2R)-1-{4-[(4aS,8aR)-4-(3,4-dimethoxyphenyl)-1-oxo-4a,5,6,7,8,8a-hexahydrophthalazin-2(1H)-yl]piperidin-1-yl}-3-methyl-1-oxobutan-2-yl]-6-methyl-5H-pyrrolo[3,2-d]pyrimidine-7-carboxamide]: the IC50 on PDE4B1 and at human PDE5 was 1 to 10 nM throughout.
As to `COc1ccc(C2=NN(C3CCN(C(=O)[C@H](NC(=O)c4c[nH]c5c(-c6c(OCC7CC7)ccc7c6OCO7)ncnc45)C(C)(C)C)CC3)C(=O)[C@@H]3CCCC[C@H]23)cc1OC` [Example 121, 4-[5-(cyclopropylmethoxy)-1,3-benzodioxol-4-yl]-N-[(2R)-1-{4-[(4aS,8aR)-4-(3,4-dimethoxyphenyl)-1-oxo-4a,5,6,7,8,8a-hexahydrophthalazin-2(1H)-yl]piperidin-1-yl}-3,3-dimethyl-1-oxobutan-2-yl]-5H-pyrrolo[3,2-d]pyrimidine-7-carboxamide], the IC50 on PDE4B1 and at human PDE5 was 1 to 10 nM throughout.
In the case of `COc1ccc(C2=NN(C3CCN(C(=O)CNC(=O)c4c[nH]c5c(-c6c(OCC7CC7)ccc7c6OCO7)ncnc45)CC3)C(=O)C3(CCCC3)C2)cc1OC` [Example 122, 4-[5-(cyclopropylmethoxy)-1,3-benzodioxol-4-yl]-N-(2-{4-[9-(3,4-dimethoxyphenyl)-6-oxo-7,8-diazaspiro[4.5]dec-8-en-7-yl]piperidin-1-yl}-2-oxoethyl)-5H-pyrrolo[3,2-d]pyrimidine-7-carboxamide], the IC50 at PDE4B1 and at human PDE5 was 1 to 10 nM throughout.
